One may read the EC50 as the concentration giving half of the maximal effect. Read a low EC50 as an effect from little substance. As usually defined, the half-life is the time in which the quantity being followed falls by half.

Where only a bound is given, the exact number is not on record here.

The test system of data set [1] is FADD-deficient variant of human Jurkat T cells. The data set can be described thus: Necroptosis inhibition in FADD-deficient Jurkat T cells treated with TNF-α, ATP-based viability. Format: cell-based. Particulars: for EC50: Jurkat, 10 ng/mL human TNF-α, 24 hours; for necroptosis inhibitory activity in words: TNF-α treated FADD-deficient Jurkat T cells. As for the experimental part:
Stock solutions (30 mM) in DMSO were initially prepared and then diluted with DMSO to give testing solutions, which were added to each test well. The final DMSO concentration was 0.5%. Eleven compound test concentrations (0.030-100 μM) were used. Each concentration was done in duplicate.
Cell viability assessments were performed using a commercial luminescent ATP-based assay kit (CellTiter-Glo, Promega, Madison, Wis.) according to the manufacturer's instructions. Briefly, 40 μL of the cell lysis/ATP detection reagent was added to each well. Plates were incubated on a rocking platform for 10 minutes at room temperature and luminescence was measured using a Wallac Victor 3 plate-reader (Perkin Elmer, Wellesley, Mass.). Cell viability was expressed as a ratio of the signal in the well treated with TNF-α and compound to the signal in the well treated with compound alone. […] EC50 values were calculated using nonlinear regression analysis of sigmoid dose-response (variable slope) curves from plots of log[I] verses viability values.

The nature of data set [2]: Microsome stability in pooled mouse liver microsomes. Format: in vitro ADME. To be noted: 3 μM compound, 0.5 mg/mL microsome protein, 1 mM NADPH; for microsomal CLint at 3 μM: in vitro intrinsic clearance, N=3, read-out: CLint (μL/minutes/mg protein). On the procedure: Microsome stability was determined in pooled mouse liver microsomes. Test compound (3 μM final concentration) along with 0.5 mg/mL microsome protein and 1 mM NADPH was incubated for 0, 5, 15, 30 and 60 minutes. Incubation of test compound and microsomes in the absence of NADPH served as a negative control. The samples were quenched with methanol and centrifuged for 20 minutes at 2500 rpm to precipitate proteins. Sample supernatants were analyzed (N=3) by LC/MS. The In peak area ratio (compound peak area/internal standard peak area) was plotted against time and the slope of the line determined to give the elimination rate constant [k=(−1)(slope)]. The half life (t1/2 in minutes), and the in vitro intrinsic clearance (CLint in μL/min/mg protein) were calculated according to the following equations, where V=incubation volume in μL/mg protein: […]
A general note: Liver microsomes are a subcellular fraction often used to study metabolism.

The mark [3] stands for this setting: Table 2, Formula (I-a), standard deviation <10%.

Turning to `Cc1ccn(C)c1C(=O)NCc1c(F)cccc1Cl` [Compound 82], in data set [1] (Table 5, pyrrole compounds), the EC50 is greater than 20000 nM. Still for that read-out and setting: in the case of `CC(c1ccccc1)n1cccc1C(=O)NCc1c(F)cccc1Cl` (stereo not drawn) [Compound 87] it was greater than 20000 nM; in that of `CC(C)n1c(C#N)ccc1C(=O)NCc1c(F)cccc1Cl` [Compound 96], 1400 nM.

`O=C(NCc1c(F)cccc1Cl)c1ccc[nH]1` [Compound 80]: the 50% effective concentration (EC50) in data set [1] (Table 5, pyrrole compounds) is greater than 20000 nM.

The compound `O=C(NCc1c(F)cccc1C(F)(F)F)c1snnc1C1CC1` [Compound 44] yielded an EC50 in data set [1] (setting [3]) greater than 100000 nM. Regarding `CN(Cc1c(F)cccc1Cl)C(=O)c1cccn1C` [Compound 88], the EC50 in data set [1] (Table 5, pyrrole compounds) was greater than 20000 nM. On the same count and under the same terms, in the case of `CCCCC(NC(=O)c1cccn1C(C)C)c1c(F)cccc1Cl` (racemic) [Compound 92] it was greater than 20000 nM.

`O=C(NC(=O)c1c(F)cccc1Cl)c1snnc1C1CC1` [Compound 16] gave an EC50 in data set [1] (Table 3, Formula (I-b)) greater than 100000 nM. Moreover, the “necroptosis inhibitory activity in words” value in data set [1] is “inactive”.

As to `O=C(NCc1c(F)cccc1Cl)c1snnc1C1CCCCC1` [Compound 35], a half-maximal response in data set [1] (setting [3]) (EC50) required 6000 nM. On to `Cn1c(C#N)ccc1C(=O)NCc1c(F)cccc1Cl` [Compound 94], for which, in data set [2], the half-life at 3 μM worked out at 42.3 min and the microsomal CLint at 3 μM was 32.8 ± 2.2 µL/min/mg. The EC50 in data set [1] (Table 5, pyrrole compounds) was 340 nM. Regarding `Cn1cc(C#N)cc1C(=O)NCc1c(F)cccc1Cl` [Compound 98], the EC50 in data set [1] (Table 5, pyrrole compounds) is greater than 20000 nM. Compound `O=C(NCc1c(F)cccc1F)c1snnc1C1CC1` [Compound 39] yielded an EC50 in data set [1] (setting [3]) of 1500 nM.

On to `Cn1c(Cl)ccc1C(=O)NCc1c(F)cccc1Cl` [Compound 78], for which, in data set [2], the half-life at 3 μM worked out at 15.4 min and the microsomal CLint at 3 μM was 89.8 ± 3 µL/min/mg. Also, the EC50 in data set [1] (Table 5, pyrrole compounds) was found to be 740 nM. For the compound `O=C(NCc1c(F)cccc1Cl)c1snnc1C1CCC1` [Compound 33], it took 600 nM to reach a half-maximal effect in data set [1] (setting [3]) (EC50). In the case of `O=C(NCc1c(F)cccc1Cl)c1cccn1Cc1ccccc1` [Compound 86], in data set [1] (Table 5, pyrrole compounds), the EC50 was greater than 20000 nM. Turning to `C[C@H](NC(=O)c1ccc(C#N)n1C)c1c(F)cccc1Cl` [Compound 97], in data set [2], the half-life at 3 μM worked out at 236 min and the microsomal CLint at 3 μM amounted to 5.9 ± 2.5 µL/min/mg. In the case of `Cc1cc[nH]c1C(=O)NCc1c(F)cccc1Cl` [Compound 81], the response in data set [1] (Table 5, pyrrole compounds) was half-maximal at 4900 nM (EC50). This counts as single-digit micromolar. On to `CC(C)(C)c1nnsc1C(=O)NCc1c(F)cccc1Cl` [Compound 36], for which the EC50 in data set [1] (setting [3]) was 18000 nM. Same read-out and setting: to `O=C(NCc1c(F)cccc1Cl)c1snnc1-c1ccccc1` [Compound 37] belongs greater than 100000 nM. `CC(NC(=O)c1cccn1C(C)C)c1c(F)cccc1Cl` (racemic) [Compound 89] yielded an EC50 in data set [1] (Table 5, pyrrole compounds) of 2100 nM.

Take `Cc1ccn(C(C)C)c1C(=O)NCc1c(F)cccc1Cl` [Compound 83]: the EC50 in data set [1] (Table 5, pyrrole compounds) came out at 7800 nM. Compound `CCn1c(C#N)ccc1C(=O)NCc1c(F)cccc1Cl` [Compound 95] gave an EC50 in data set [1] (Table 5, pyrrole compounds) of 1900 nM. The same measure, in the same setting: to `CCn1c(Br)ccc1C(=O)NCc1c(F)cccc1Cl` [Compound 93] belongs 2400 nM; to `CC(C)n1cccc1C(=O)N[C@H](C)c1c(F)cccc1Cl` [Compound 91], greater than 20000 nM. Compound `O=C(NCc1c(F)cccc1Cl)c1snnc1C1CCCC1` [Compound 34] gave an EC50 in data set [1] (setting [3]) of 1900 nM. In the case of `CC(C)n1cccc1C(=O)NCc1c(F)cccc1Cl` [Compound 85], in data set [1] (Table 5, pyrrole compounds), a half-maximal effect (EC50) was put at 440 nM. On to `O=C(NCc1cccc2ccccc12)c1snnc1C1CC1` [Compound 45], for which, in data set [1] (setting [3]), the EC50 is greater than 100000 nM.

As for `O=C(NCc1ccccc1F)c1snnc1C1CC1` [Compound 40], the EC50 in data set [1] (setting [3]) was 1500 nM. In data set [1] (Table 5, pyrrole compounds), `CC(C)n1cccc1C(=O)N[C@@H](C)c1c(F)cccc1Cl` [Compound 90] registered an EC50 of 520 nM. On to `Cc1cccc(Cl)c1CNC(=O)c1snnc1C1CC1` [Compound 41], for which, in data set [1] (setting [3]), a half-maximal response (EC50) required 10000 nM. Compound `CC(C)n1cc(C#N)cc1C(=O)NCc1c(F)cccc1Cl` [Compound 99] came in with an EC50 in data set [1] (Table 5, pyrrole compounds) greater than 20000 nM.

Take `Fc1cccc(Cl)c1CNCc1snnc1C1CC1` [Compound 13]: the EC50 in data set [1] (Table 3, Formula (I-b)) was greater than 100000 nM. In addition, the “necroptosis inhibitory activity in words” value in data set [1] was “inactive”. With `Cn1cccc1C(=O)NCc1c(F)cccc1Cl` [Compound 84], in data set [2], the half-life at 3 μM came out at 17.2 min and the microsomal CLint at 3 μM was 80.6 ± 4.4 µL/min/mg. In addition, the midpoint of the response in data set [1] (Table 5, pyrrole compounds), the EC50, lay at 900 nM.
